Results taken from US7608712B2, “Pyridine imidazoles and aza-indoles as progesterone receptor modulators” (Janssen Pharmaceutica N.V., priority 2004, dated 2009).

These compounds were tested on T47D human breast cancer cells (assay: T47D alkaline phosphatase assay (In Vitro Test)). Details: Homo sapiens, T47D.
Format: cell-based
Method: T47D human breast cancer cells are grown in RPMI medium without phenol red (Invitrogen) containing 10% (v/v) heat-inactivated fetal bovine serum (FBS; Hyclone), 1% (v/v) penicillin-streptomycin (Invitrogen), 1% (w/v) glutamine (Invitrogen), and […] insulin (Sigma). Incubation conditions are 37 °C in a humidified 5% (v/v) carbon dioxide environment. For assay, the cells are plated in 96-well tissue culture plates at 10,000 cells per well in assay medium [RPMI medium without phenol red (Invitrogen) containing 5% (v/v) charcoal-treated FBS (Hyclone) and 1% (v/v) penicillin-streptomycin (Invitrogen)]. Two days later, the medium is decanted and the compounds are added in a final concentration of 0.1% (v/v) dimethyl sulfoxide in fresh assay medium. Twenty-four hours later, an alkaline phosphatase assay is performed using a SEAP kit (BD Biosciences Clontech, Palo Alto, Calif.). Briefly, the medium is decanted and the cells are fixed for 30 minutes at room temperature with 5% (v/v) formalin (Sigma). The cells are washed once with room temperature Hank's buffered saline solution (Invitrogen). Equal volumes (0.05 mL) of 1× Dilution Buffer, Assay Buffer and 1:20 substrate/enhancer mixture are added. After 1-hour incubation at room temperature in the dark, the lysate is transferred to a white 96-well plate (Dynex) and luminescence is read using a LuminoSkan Ascent (Thermo Electron, Woburn, Mass.).

Compound | IC50 [µM]
CC1(C)C(=O)Nc2ncc(-c3cccc(F)c3)cc21 [Example 31, 5-(3-Fluoro-phenyl)-3,3-dimethyl-1,3-dihydro-pyrrolo[2,3-b]pyridin-2-one] | 4.48

Same assay, conditions: Homo sapiens, T47D, read-out: % inh.

Compound | inhibition at 3 µM [%] | inhibition at 10 µM [%]
CC1(C)C(=O)Nc2ncc(-c3cccc(F)c3)cc21 [Example 31, 5-(3-Fluoro-phenyl)-3,3-dimethyl-1,3-dihydro-pyrrolo[2,3-b]pyridin-2-one] | 95 | 92

Same assay, conditions: Homo sapiens, T47D; @ 3 uM; read-out: % inh.

Compound | inhibition at 3 µM [%]
O=C1Nc2ncc(-c3cccc(F)c3)cc2C12CCCCC2 [Example 32, 5-(3-Fluoro-phenyl)-3,3-spiro[cyclohexane]-1,3-dihydro-pyrrolo[2,3-b]pyridin-2-one] | 58

Same assay, conditions: Homo sapiens, T47D; @ 10 uM; read-out: % inh.

Compound | inhibition at 10 µM [%]
O=C1Nc2ncc(-c3cccc(F)c3)cc2C12CCCCC2 [Example 32, 5-(3-Fluoro-phenyl)-3,3-spiro[cyclohexane]-1,3-dihydro-pyrrolo[2,3-b]pyridin-2-one] | 58

Same assay, conditions: Homo sapiens, T47D; Table 4; read-out: IC50

IC50 [µM] | Compound
7.03 | O=C1Nc2ncc(-c3cccc(F)c3)cc2C12CCCCC2 [Example 32, 5-(3-Fluoro-phenyl)-3,3-spiro[cyclohexane]-1,3-dihydro-pyrrolo[2,3-b]pyridin-2-one]

Same assay, conditions: Homo sapiens, T47D; activation (footnote to Table 3)

EC50 [µM] | Compound
1.95 | O=C1N=C2C=CC(c3ccc(Cl)c(Cl)c3)=CN2C12CCCC2 [Example 28, 6-(3,4-Dichloro-phenyl)-3,3-spiro[pentane]-imidazo[1,2-a]pyridin-2-one]

Same assay, conditions: Table 3; test concentration not given

Compound | % inh. [%]
CC1(C)C(=O)N=C2C=CC(Br)=CN21 [Example 1-C1, 6-Bromo-3,3-dimethyl-imidazo[1,2-a]pyridin-2-one] | 53
O=C1N=C2C=CC(Cl)=CN2C12CCCCC2 [Example 6, 6-Chloro-spiro[cyclohexane]-imidazo[1,2-a]pyridin-2-one] | 42
O=C1N=C2C=CC(c3cccc([N+](=O)[O-])c3)=CN2C12CCCC2 [Example 27, 6-(3-nitro-phenyl)-3,3-spiro[pentane]-imidazo[1,2-a]pyridin-2-one] | 86
O=C1N=C2C=CC(c3cc(C(F)(F)F)cc(C(F)(F)F)c3)=CN2C12CCCCC2 [Example 17, 6-(3,5-Bis-trifluoromethyl-phenyl)-3,3-spiro[cyclohexane]-imidazo[1,2-a]pyridin-2-one] | 04
O=C1N=C2C=CC(c3cccc(F)c3)=CN2C12CCCC2 [Example 26, 6-(3-Fluoro-phenyl)-3,3-spiro[pentane]-imidazo[1,2-a]pyridin-2-one] | 2
O=C1N=C2C=CC(c3cc(F)cc(F)c3)=CN2C12CCCCC2 [Example 21, 6-(3,5-Difluoro-phenyl)-3,3-spiro[cyclohexane]-imidazo[1,2-a]pyridin-2-one] | 99
O=C1N=C2C=CC(Br)=CN2C12CCCC2 [Example 1-C2, 6-Bromo-3,3-spiro[cyclopentane]-imidazo[1,2-a]pyridin-2-one] | 35
COc1cccc(C2=CN3C(=NC(=O)C34CCCCC4)C=C2)c1 [Example 16, 6-(3-Methoxy-phenyl)-3,3-spiro[cyclohexane]-imidazo[1,2-a]pyridin-2-one] | 01
O=C1N=C2C=CC(c3ccc(F)cc3F)=CN2C12CCCCC2 [Example 23, 6-(2,4-Difluoro-phenyl)-3,3-spiro[cyclohexane]-imidazo[1,2-a]pyridin-2-one] | 96
CC1(C)C(=O)N=C2C=CC(c3ccc(F)cc3F)=CN21 [Example 10, 6-(2,4-Difluoro-phenyl)-3,3-dimethyl-imidazo[1,2-a]pyridin-2-one] | 29
CC1(C)C(=O)N=C2C=CC(c3cccc(F)c3)=CN21 [Example 13, 6-(3-Fluoro-phenyl)-3,3-dimethyl-imidazo[1,2-a]pyridin-2-one] | 14
CC1(C)C(=O)N=C2C=CC(c3cc(C(F)(F)F)cc(C(F)(F)F)c3)=CN21 [Example 11, 6-(3,5-Bis-trifluoromethyl-phenyl)-3,3-dimethyl-imidazo[1,2-a]pyridin-2-one] | 19
O=C1N=C2C=CC(c3cccc(C(F)(F)F)c3)=CN2C12CCCCC2 [Example 19, 6-(3-trifluoromethyl-phenyl)-3,3-spiro[cyclohexane]-imidazo[1,2-a]pyridin-2-one] | 97
CC1(C)C(=O)N=C2C=CC(c3cccc([N+](=O)[O-])c3)=CN21 [Example 8, 3,3-Dimethyl-6-(3-nitro-phenyl)-imidazo[1,2-a]pyridin-2-one] | 33
CC1(C)C(=O)N=C2C=CC(c3cccc(C#N)c3)=CN21 [Example 4, 3-(3,3-Dimethyl-2-oxo-2,3-dihydro-imidazo[1,2-a]pyridin-6-yl)-benzonitrile] | 19
CC1(C)C(=O)N=C2C=CC(c3ccccc3Cl)=CN21 [Example 14, 6-(2-Chloro-phenyl)-3,3-dimethyl-imidazo[1,2-a]pyridin-2-one] | 0

Compound | % inh. [%]
COc1cccc(C2=CN3C(=NC(=O)C3(C)C)C=C2)c1 [Example 12, 6-(3-Methoxy-phenyl)-3,3-dimethyl-imidazo[1,2-a]pyridin-2-one] | 3.1
O=C1N=C2C=CC(c3ccc(Cl)c(Cl)c3)=CN2C12CCCCC2 [Example 22] | 88
CC1(C)C(=O)N=C2C=CC(c3cccc(Cl)c3)=CN21 [Example 2, 6-(3-Chloro-phenyl)-3,3-dimethyl-imidazo[1,2-a]pyridin-2-one] | 15
CC1(C)C(=O)N=C2C=CC(c3cccc(C(F)(F)F)c3)=CN21 [Example 9, 3,3-Dimethyl-6-(3-trifluoromethyl-phenyl)-imidazo[1,2-a]pyridin-2-one] | 17
N#Cc1cccc(C2=CN3C(=NC(=O)C34CCCCC4)C=C2)c1 [Example 20, 6-(3-cyano-phenyl)-3,3-spiro[cyclohexane]-imidazo[1,2-a]pyridin-2-one] | 96
O=C1N=C2C=CC(c3ccc(Cl)c(Cl)c3)=CN2C12CCCC2 [Example 28, 6-(3,4-Dichloro-phenyl)-3,3-spiro[pentane]-imidazo[1,2-a]pyridin-2-one] | 22
CC1(C)C(=O)N=C2C=CC(Cl)=CN21 [Example 5, 6-Chloro-3,3-dimethyl-imidazo[1,2-a]pyridin-2-one] | 31
O=C1N=C2C=CC(c3cc(C(F)(F)F)cc(C(F)(F)F)c3)=CN2C12CCCC2 [Example 29, 6-(3,5-Bis-trifluoromethyl-phenyl)-3,3-spiro[pentane]-imidazo[1,2-a]pyridin-2-one] | 25
O=C1N=C2C=CC(c3cccc([N+](=O)[O-])c3)=CN2C12CCCCC2 [Example 18, 6-(3-nitro-phenyl)-3,3-spiro[cyclohexane]-imidazo[1,2-a]pyridin-2-one] | 98
O=C1N=C2C=CC(c3ccc(F)c(Cl)c3)=CN2C12CCCC2 [Example 30, 6-(3-Chloro-4-fluoro-phenyl)-3,3-spiro[pentane]-imidazo[1,2-a]pyridin-2-one] | 21
N#Cc1cccc(C2=CN3C(=NC(=O)C34CCCC4)C=C2)c1 [Example 25, 6-(3-cyano-phenyl)-3,3-spiro[pentane]-imidazo[1,2-a]pyridin-2-one] | 2
O=C1N=C2C=CC(c3cccc(Cl)c3)=CN2C12CCCC2 [Example 24, 6-(3-chloro-phenyl)-3,3-spiro[pentane]-imidazo[1,2-a]pyridin-2-one] | 1
O=C1N=C2C=CC(c3cccc(Cl)c3)=CN2C12CCCCC2 [Example 3, 6-(3-chloro-phenyl)-3,3-spiro[cyclohexane]-imidazo[1,2-a]pyridin-2-one] | 104
O=C1N=C2C=CC(c3cccc(F)c3)=CN2C12CCCCC2 [Example 15, 6-(3-Fluoro-phenyl)-3,3-spiro[cyclohexane]-imidazo[1,2-a]pyridin-2-one] | 0
CC1(C)C(=O)N=C2C=CC(c3cc(F)cc(F)c3)=CN21 [Example 7, 6-(3,5-Difluoro-phenyl)-3,3-dimethyl-imidazo[1,2-a]pyridin-2-one] | 40
